Measured values from ChEMBL document CHEMBL1136726, “Synthesis and characterization of iodine-123 labeled 2beta-carbomethoxy-3beta-(4'-((Z)-2-iodoethenyl)phenyl)nortropane. A ligand for in vivo imaging of serotonin transporters by single-photon-emission tomography” (J Med Chem, 2003).

What was measured:
[1] = target: T1, Sodium-dependent serotonin transporter (Homo sapiens, UniProt P31645); test: Binding affinity towards serotonin transporter (SERT)
[2] = target: T1, Sodium-dependent serotonin transporter; test: In vitro competitive binding versus [3H]citalopram in murine kidney cells transfected with cDNA for human serotonin transporter (SERT); type: cell-based
[3] = target: T2, Sodium-dependent dopamine transporter (Homo sapiens, UniProt Q01959); test: In vitro competitive binding versus [N-methyl-3H]WIN-35428 in murine kidney cells transfected with cDNA for human dopamine transporter (DAT); type: cell-based
T2 sequence (Q01959 whole entry): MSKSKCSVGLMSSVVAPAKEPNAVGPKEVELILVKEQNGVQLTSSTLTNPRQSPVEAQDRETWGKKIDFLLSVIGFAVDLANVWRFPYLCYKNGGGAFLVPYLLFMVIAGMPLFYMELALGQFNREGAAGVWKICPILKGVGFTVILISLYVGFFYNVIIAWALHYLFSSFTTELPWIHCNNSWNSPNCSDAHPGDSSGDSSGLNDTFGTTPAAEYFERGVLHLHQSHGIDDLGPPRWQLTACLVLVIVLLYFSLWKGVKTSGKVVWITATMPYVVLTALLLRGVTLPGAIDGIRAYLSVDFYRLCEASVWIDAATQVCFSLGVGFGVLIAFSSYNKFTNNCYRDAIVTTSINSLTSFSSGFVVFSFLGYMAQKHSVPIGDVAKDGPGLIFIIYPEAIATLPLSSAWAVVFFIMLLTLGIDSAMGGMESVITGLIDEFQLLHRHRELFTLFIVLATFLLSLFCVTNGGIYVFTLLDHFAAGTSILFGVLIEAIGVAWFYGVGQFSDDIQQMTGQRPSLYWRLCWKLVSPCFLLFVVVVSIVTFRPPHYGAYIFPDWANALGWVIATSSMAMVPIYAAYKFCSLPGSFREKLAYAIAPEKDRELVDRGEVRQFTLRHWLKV

[4] = target: Sodium-dependent noradrenaline transporter (Homo sapiens, UniProt P23975); test: In vitro competitive binding versus [3H]- […] in murine kidney cells transfected with cDNA for human norepinephrine transporter (NET); type: cell-based
Sodium-dependent noradrenaline transporter, sequence (P23975 whole entry): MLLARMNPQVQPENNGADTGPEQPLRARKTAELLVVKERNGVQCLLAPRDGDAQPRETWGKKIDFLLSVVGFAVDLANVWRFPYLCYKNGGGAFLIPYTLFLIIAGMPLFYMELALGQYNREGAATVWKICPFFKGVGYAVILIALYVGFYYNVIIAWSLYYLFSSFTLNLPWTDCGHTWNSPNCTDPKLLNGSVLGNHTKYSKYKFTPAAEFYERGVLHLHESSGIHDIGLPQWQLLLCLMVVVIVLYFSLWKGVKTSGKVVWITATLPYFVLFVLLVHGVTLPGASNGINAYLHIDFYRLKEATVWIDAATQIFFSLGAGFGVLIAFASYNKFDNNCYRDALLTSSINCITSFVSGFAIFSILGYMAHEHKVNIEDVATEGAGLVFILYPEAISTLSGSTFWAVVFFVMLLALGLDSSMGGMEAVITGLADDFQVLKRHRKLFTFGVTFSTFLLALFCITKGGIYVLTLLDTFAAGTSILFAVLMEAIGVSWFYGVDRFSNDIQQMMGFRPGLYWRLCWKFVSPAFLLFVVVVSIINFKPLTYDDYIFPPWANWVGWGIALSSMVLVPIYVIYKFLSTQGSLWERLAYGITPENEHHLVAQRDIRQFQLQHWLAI

[5] = target: T1, Sodium-dependent serotonin transporter; test: Binding affinity towards serotonin transporter (SERT) by using [3H]paroxetine as radioligand
[6] = target: T2, Sodium-dependent dopamine transporter; test: Binding affinity towards dopamine transporter (DAT) by using [3H]WIN-35428 as radioligand
[7] = target: T1, Sodium-dependent serotonin transporter; test: In vitro competitive binding versus [3H]-citalopram in murine kidney cells transfected with cDNA for human serotonin transporter (SERT); type: cell-based

T1 sequence (P31645 whole entry): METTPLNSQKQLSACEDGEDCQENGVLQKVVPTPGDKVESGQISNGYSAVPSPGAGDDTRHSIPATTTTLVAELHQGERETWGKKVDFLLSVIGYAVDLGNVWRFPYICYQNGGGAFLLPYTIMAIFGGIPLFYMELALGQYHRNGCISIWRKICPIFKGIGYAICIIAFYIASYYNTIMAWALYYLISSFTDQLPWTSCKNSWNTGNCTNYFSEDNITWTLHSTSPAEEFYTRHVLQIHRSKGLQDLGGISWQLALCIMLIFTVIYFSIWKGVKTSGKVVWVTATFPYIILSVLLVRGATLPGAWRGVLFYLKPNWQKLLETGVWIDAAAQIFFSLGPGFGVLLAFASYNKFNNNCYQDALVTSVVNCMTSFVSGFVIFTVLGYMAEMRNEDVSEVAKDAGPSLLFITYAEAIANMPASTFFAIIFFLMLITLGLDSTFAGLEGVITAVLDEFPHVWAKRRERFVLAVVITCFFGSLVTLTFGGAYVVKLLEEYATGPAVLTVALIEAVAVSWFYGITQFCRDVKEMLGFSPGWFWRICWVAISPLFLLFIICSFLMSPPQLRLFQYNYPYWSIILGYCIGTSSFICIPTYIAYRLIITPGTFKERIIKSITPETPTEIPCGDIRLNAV

COC(=O)[C@@H]1C2CC[C@H](C[C@@H]1c1ccc(I)cc1)N2C
IC50 [1]: 4.2 nM | Ki [2]: 0.67 nM | Ki [3]: 0.48 nM | Ki [4]: 1.4 nM

C/C=C/c1ccc([C@H]2CC3CCC([C@H]2C(=O)OC)N3C)cc1 (stereo not given in full)
IC50 [5]: 1.3 nM | IC50 [6]: 28 nM

COC(=O)[C@@H]1C2CCC(C[C@@H]1c1ccc(I)cc1)N2 (stereo not given in full)
IC50 [1]: 0.36 nM | Ki [3]: 0.12 nM

C=Cc1ccc([C@H]2CC3CCC(N3)[C@H]2C(=O)CC)cc1 (stereo not given in full)
IC50 [5]: 0.32 nM

COC(=O)[C@@H]1C2CCC(C[C@@H]1c1ccc(/C=C/I)cc1)N2 (stereo not given in full)
Ki [3]: 1.88 nM | Ki [4]: 32 nM | Ki [7]: 1.15 nM

C=C(C)c1ccc([C@H]2CC3CCC(N3)[C@H]2C(=O)CC)cc1 (stereo not given in full)
IC50 [5]: 0.16 nM

C/C=C\c1ccc([C@H]2CC3CCC([C@H]2C(=O)OC)N3C)cc1 (stereo not given in full)
IC50 [5]: 1.15 nM | IC50 [6]: 32 nM
